Legend:
Format in all cases: binding, influenza A/California/04/2009(H1N1)
Details in all cases: 200 µM
[1] = target: E23K mutant PAN endonuclease (Influenza A virus, UniProt C3W5S0, DEL52-64/E23K/INS51G, form not given)
[2] = target: I38T mutant PAN endonuclease (Influenza A virus, UniProt C3W5S0, DEL52-64/I38T/INS51G, form not given)
[3] = target: WT PAN endonuclease (Influenza A virus, UniProt C3W5S0, DEL52-64/INS51G, form not given)

CSc1ccccc1-c1cc(=O)c(O)c(C(=O)O)[nH]1 [Compound 3]
E23K ΔTm (thermal shift) [1]: 7.21 ± 0.15 °C | I38T ΔTm (thermal shift) [2]: 10.86 ± 0.12 °C | WT ΔTm (thermal shift) [3]: 10.89 ± 0.12 °C

From paper PMC13298843, “Substituent size versus metal binding of inhibitors with variants of influenza endonuclease^” (Journal of inorganic biochemistry, 2025)
